ChEMBL document CHEMBL1150612, “Naturally occurring cembranes from an Australian sarcophyton species” (J Nat Prod, 2002)
The source made the active and inactive calls. No cut-off for these calls is given here.

Experiments:
[1] = target: T1, Adenosine receptor A1 (Rattus norvegicus) (UniProt P25099); experiment: Displacement of [3H]DPCPX from rat brain adenosine A1 receptor up to […]
T1 sequence (whole entry): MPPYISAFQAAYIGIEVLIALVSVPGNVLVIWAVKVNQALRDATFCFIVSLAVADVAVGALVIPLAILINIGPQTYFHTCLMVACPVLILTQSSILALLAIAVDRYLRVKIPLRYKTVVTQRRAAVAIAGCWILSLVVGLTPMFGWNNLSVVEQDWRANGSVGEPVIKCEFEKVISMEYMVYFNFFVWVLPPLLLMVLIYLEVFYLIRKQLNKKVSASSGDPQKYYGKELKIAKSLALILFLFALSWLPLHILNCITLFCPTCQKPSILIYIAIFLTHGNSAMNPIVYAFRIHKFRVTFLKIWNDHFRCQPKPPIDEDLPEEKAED

Adenosine receptor A1 = target: T2, Adenosine receptor A1 (Rattus norvegicus, UniProt P25099); experiment: Displacement of [3H]DPCPX from rat brain adenosine A1 receptor
T2 sequence (P25099 whole entry): T1 sequence (whole entry)

Row | Structure (SMILES) | Activity [1] | IC50 (Adenosine receptor A1) [µM]
1 | C=C1CC[C@@H]2O[C@@]2(C)CC[C@@H](C(C)C)/C=C/[C@](C)(O)CC[C@@H]1O | inactive | 
2 | CC(C)[C@H]1/C=C/[C@](C)(O)C/C=C/[C@](C)(O)CC[C@@H]2O[C@@]2(C)CC1 |  | 300
3 | CC(C)[C@H]1/C=C/[C@](C)(O)C/C=C/[C@@](C)(O)CC[C@@H]2O[C@@]2(C)CC1 |  | 300
4 | C=C1CC[C@@H]2O[C@@]2(C)CC[C@@H](C(C)C)/C=C/[C@](C)(O)CC[C@H]1O | inactive | 
